Source: US20230183292A1, “IMMUNOMODULATORS” (priority 2020, published 2023)
Starred links: 1 amine or outer side, 2 acyl side, 3 side chain; linkers in the order of their positions; H or OH if unused. Positions of bridges follow the written chain, without caps; N, C: chain ends. Non-standard residues stand in square brackets, D forms with d. Residues, ends and D or L forms follow the SMILES beside them. *: point of attachment. X2 = C[C@H](CCC(=O)NCCCN(CCCCNC(=O)CC[C@@H](C)[C@@H]1CC[C@H]2[C@@H]3[C@H](O)C[C@@H]4C[C@H](O)CC[C@]4(C)[C@H]3C[C@H](O)[C@@]21C)*)[C@H]1CC[C@H]2[C@@H]3[C@H](O)C[C@@H]4C[C@H](O)CC[C@]4(C)[C@H]3C[C@H](O)[C@]12C; X9 = C[C@H](CCC(=O)O)[C@H]1CC[C@H]2[C@@H]3C(O)C[C@@H]4CC(NCC[C@H](N[*:1])C(=O)[*:2])CC[C@]4(C)[C@H]3CC(=O)[C@]12C; X8 = C[C@H](CCC(=O)O)[C@H]1CC[C@H]2[C@@H]3C(O)C[C@@H]4CC(NC[C@H](N[*:1])C(=O)[*:2])CC[C@]4(C)[C@H]3CC(=O)[C@]12C; Cholyl = C[C@H](CCC(=O)*)[C@H]1CC[C@H]2[C@@H]3[C@H](O)C[C@@H]4C[C@H](O)CC[C@]4(C)[C@H]3C[C@H](O)[C@]12C; X14 = C[C@H](CCC(=O)*)[C@H]1CC[C@H]2[C@H]3C(C[C@H](O)[C@]12C)[C@@]1(C)CC[C@@H](O)C[C@H]1C[C@H]3O; X19 = C[C@H](CCC(=O)*)[C@H]1CC[C@H]2[C@@H]3CC(=O)[C@@H]4C[C@H](O)CC[C@]4(C)[C@H]3CC[C@]12C; Trp(1-CH2CO) = O=C([C@H](Cc1cn(CC(=O)[*:3])c2ccccc12)N[*:1])[*:2]; X13 = CC(C)CNC(=O)Cn1cc(C[C@H](N[*:1])C(=O)[*:2])c2ccccc21; Trp(1-CH2CO2Me) = COC(=O)Cn1cc(C[C@H](N)C(=O)O)c2ccccc21; Trp(1-CH2COOH) = N[C@@H](Cc1cn(CC(=O)O)c2ccccc12)C(=O)O; Hyp = O=C(O)[C@@H]1C[C@@H](O)CN1; X12 = O=c1c([*:1])c([*:2])c1=O; NMeNle = CCCC[C@H](NC)C(=O)O; NMeA = CN[C@@H](C)C(=O)O; Dab = NCC[C@H](N)C(=O)O; Dap = NC[C@H](N)C(=O)O

The compounds below were run against T1, PD-1/PD-L1 (Homo sapiens, UniProt Q9NZQ7) (assay: PD-1/PD-L1 Homogenous Time-Resolved Fluorescence (HTRF) binding assay). Details: PD-L1-His 10 nM, PD-1-Ig 20 nM; read-out: HTRF IC50.
T1 construct: TVMV protease site (C); made in house; host or cells: HEK293T cells
T1 sequence (Q9NZQ7 18-239): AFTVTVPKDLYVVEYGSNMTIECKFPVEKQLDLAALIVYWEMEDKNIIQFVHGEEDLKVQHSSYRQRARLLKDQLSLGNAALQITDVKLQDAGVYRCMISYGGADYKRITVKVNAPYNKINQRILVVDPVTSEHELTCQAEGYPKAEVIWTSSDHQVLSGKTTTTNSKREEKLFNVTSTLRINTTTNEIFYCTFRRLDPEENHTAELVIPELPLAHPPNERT
Outline: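 Inhibitors pre-incubated 15 min with PD-L1-His (10 nM final) in dPBS, 0.1% BSA, 0.05% Tween-20, then 15 min with PD-1-Ig (20 nM final). Eu-cryptate anti-Ig (1 nM) and APC anti-His (20 nM) added, 30 min equilibration; HTRF 665/620 nm ratio. Human ECD proteins from HEK293T.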
For `CCCC[C@H]1C(=O)N(C)[C@@H](CCCC)C(=O)N[C@@H](CC(C)C)C(=O)N[C@H](C(=O)NCC(N)=O)CSCC(=O)N[C@@H](Cc2ccc(O)cc2)C(=O)N(C)[C@@H](C)C(=O)N[C@@H](CC(N)=O)C(=O)N2CCC[C@H]2C(=O)N[C@@H](CNC(=O)CC[C@@H](C)[C@H]2CC[C@H]3[C@@H]4[C@H](O)C[C@@H]5C[C@H](O)CC[C@]5(C)[C@H]4C[C@H](O)[C@]23C)C(=O)N[C@@H](CC(C)C)C(=O)N2C[C@H](O)C[C@H]2C(=O)N[C@@H](Cc2c[nH]c3ccccc23)C(=O)N[C@@H](CCNC(=O)CC[C@@H](C)[C@H]2CC[C@H]3[C@H]4C(C[C@H](O)[C@]23C)[C@@]2(C)CC[C@@H](O)C[C@H]2C[C@H]4O)C(=O)N[C@@H](Cc2cn(CC(=O)NCC(C)C)c3ccccc23)C(=O)N1C` (some centres unmarked) [Example 2002] ({CH2CO}-Y[NMeA]NP[Dap](Cholyl)L[Hyp]W[Dab](X14)[X13][NMeNle][NMeNle]LCG-NH2; thioether N-14), the IC50 was 3300 nM.
For `CCCC[C@H]1C(=O)N(C)[C@@H](CCCC)C(=O)N[C@@H](CC(C)C)C(=O)N[C@H](C(=O)NCC(N)=O)CSCC(=O)N[C@@H](Cc2ccc(O)cc2)C(=O)N(C)[C@@H](C)C(=O)N[C@@H](CC(N)=O)C(=O)N2CCC[C@H]2C(=O)N[C@@H](CNC(=O)CC[C@@H](C)[C@H]2CC[C@H]3[C@@H]4[C@H](O)C[C@@H]5C[C@H](O)CC[C@]5(C)[C@H]4C[C@H](O)[C@]23C)C(=O)N[C@@H](CC(C)C)C(=O)N2C[C@H](O)C[C@H]2C(=O)N[C@@H](Cc2c[nH]c3ccccc23)C(=O)N[C@@H](CCN)C(=O)N[C@@H](Cc2cn(CC(=O)OC)c3ccccc23)C(=O)N1C` [Example 1007] ({CH2CO}-Y[NMeA]NP[Dap](Cholyl)L[Hyp]W[Dab][Trp(1-CH2CO2Me)][NMeNle][NMeNle]LCG-NH2; thioether N-14), the IC50 was 6.8 nM.
For `CCCC[C@H]1C(=O)N(C)[C@@H](CCCC)C(=O)N[C@@H](CC(C)C)C(=O)N[C@H](C(=O)NCC(N)=O)CSCC(=O)N[C@@H](Cc2ccc(O)cc2)C(=O)N(C)[C@@H](C)C(=O)N[C@@H](CC(N)=O)C(=O)N2CCC[C@H]2C(=O)N[C@H]2CNc3c(c(=O)c3=O)NCC[C@H](NC(=O)[C@H](Cc3c[nH]c4ccccc34)NC(=O)[C@@H]3C[C@@H](O)CN3C(=O)[C@H](CC(C)C)NC2=O)C(=O)N[C@@H](Cc2cn(CC(=O)N(CCCCNC(=O)CC[C@@H](C)[C@@H]3CC[C@H]4[C@@H]5[C@H](O)C[C@@H]6C[C@H](O)CC[C@]6(C)[C@H]5C[C@H](O)[C@@]43C)CCCNC(=O)CC[C@@H](C)[C@H]3CC[C@H]4[C@@H]5[C@H](O)C[C@@H]6C[C@H](O)CC[C@]6(C)[C@H]5C[C@H](O)[C@]34C)c3ccccc23)C(=O)N1C` [Example 6001] ({CH2CO}-Y[NMeA]NP[Dap]L[Hyp]W[Dab][Trp(1-CH2CO)](X2)[NMeNle][NMeNle]LCG-NH2; linker 5-9 via X12; thioether N-14), the IC50 was 850 nM.
In the case of `CCCC[C@H]1C(=O)N(C)[C@@H](CCCC)C(=O)N[C@@H](CC(C)C)C(=O)N[C@H](C(=O)NCC(N)=O)CSCC(=O)N[C@@H](Cc2ccc(O)cc2)C(=O)N(C)[C@@H](C)C(=O)N[C@@H](CC(N)=O)C(=O)N2CCC[C@H]2C(=O)N[C@@H](CNC2CC[C@@]3(C)[C@@H](C2)CC(O)[C@@H]2[C@@H]3CC(=O)[C@]3(C)[C@@H]([C@H](C)CCC(=O)O)CC[C@@H]23)C(=O)N[C@@H](CC(C)C)C(=O)N2C[C@H](O)C[C@H]2C(=O)N[C@@H](Cc2c[nH]c3ccccc23)C(=O)N[C@@H](CCNC2CC[C@@]3(C)[C@@H](C2)CC(O)[C@@H]2[C@@H]3CC(=O)[C@]3(C)[C@@H]([C@H](C)CCC(=O)O)CC[C@@H]23)C(=O)N[C@@H](Cc2cn(CC(=O)O)c3ccccc23)C(=O)N1C` (some centres unmarked) [Example 3001] ({CH2CO}-Y[NMeA]NP[X8]L[Hyp]W[X9][Trp(1-CH2COOH)][NMeNle][NMeNle]LCG-NH2; thioether N-14), the IC50 is reported as 20 nM.
In the case of `CCCC[C@H]1C(=O)N(C)[C@@H](CCCC)C(=O)N[C@@H](CC(C)C)C(=O)N[C@H](C(=O)NCC(N)=O)CSCC(=O)N[C@@H](Cc2ccc(O)cc2)C(=O)N(C)[C@@H](C)C(=O)N[C@@H](CC(N)=O)C(=O)N2CCC[C@H]2C(=O)N[C@@H](CNC(=O)CC[C@@H](C)[C@H]2CC[C@H]3[C@@H]4CC(=O)[C@@H]5C[C@H](O)CC[C@]5(C)[C@H]4CC[C@]23C)C(=O)N[C@@H](CC(C)C)C(=O)N2C[C@H](O)C[C@H]2C(=O)N[C@@H](Cc2c[nH]c3ccccc23)C(=O)N[C@@H](CCNC(=O)CC[C@@H](C)[C@H]2CC[C@H]3[C@@H]4CC(=O)[C@@H]5C[C@H](O)CC[C@]5(C)[C@H]4CC[C@]23C)C(=O)N[C@@H](Cc2cn(CC(=O)O)c3ccccc23)C(=O)N1C` [Example 1017] ({CH2CO}-Y[NMeA]NP[Dap](X19)L[Hyp]W[Dab](X19)[Trp(1-CH2COOH)][NMeNle][NMeNle]LCG-NH2; thioether N-14), the IC50 is reported as 15 nM.
